Measured values taken from ChEMBL document CHEMBL6096630, “Enhancing therapeutic efficacy in homologous recombination-proficient pancreatic cancer via the combination of PARP1-PROTAC and a BRD4 inhibitor” (Bioorg Med Chem, 2024).
Activity calls are given as the source filed them. The rule behind the calls is not given here.

Key:
PANC-1 [1] = assay: Inhibition of colony formation in human PANC-1 cells at 2 uM incubated for 14 days by crystal violet staining based analysis; type: functional, cell-based; conditions: time 14.0 day
PANC-1 [2] = assay: Induction of cell cycle arrest in human PANC-1 cells assessed as accumulation at G1 phase at 2.5 uM incubated for 24 hrs by PI staining based flow cytometry (reference value: 51.70 %); type: functional
PANC-1 [3] = assay: Induction of apoptosis in human PANC-1 cells assessed as necrotic cells at 10 uM incubated for 48 hrs by Annexin V-FITC/PI staining based flow cytometry (reference value: 3.09 %); type: functional
PANC-1 [4] = assay: Antitumor activity against human PANC-1 cells xenografted in BALB/c mouse assessed as reduction in tumor growth at 40 mg/kg, ip for 4 weeks administered for 5 days consecutively and 2 days without treatment on every week; type: functional, organism-based
PANC-1 [5] = assay: Antitumor activity against human PANC-1 cells xenografted in BALB/c mouse assessed as inhibition of tumor volume at 40 mg/kg, ip for 4 weeks administered for 5 days consecutively and 2 days without treatment on every week in presence of JQ1; type: functional, organism-based
[6] = Toxicity in BALB/c mouse xenografted with human PANC-1 cells assessed as pathological changes in spleen at 40 mg/kg, ip for 4 weeks administered for 5 days consecutively and 2 days without treatment on every week in presence of JQ1 by H and E staining based analysis; type: organism-based; conditions: in vivo, 672 h
[7] = Toxicity in BALB/c mouse xenografted with human PANC-1 cells assessed as pathological changes in spleen at 40 mg/kg, ip for 4 weeks administered for 5 days consecutively and 2 days without treatment on every week by H and E staining based analysis; type: organism-based; conditions: in vivo, 672 h
PANC-1 [8] = assay: Induction of apoptosis in human PANC-1 cells assessed as necrotic cells at 5 uM incubated for 48 hrs by Annexin V-FITC/PI staining based flow cytometry (reference value: 3.09 %); type: functional
[9] = Toxicity in BALB/c mouse xenografted with human PANC-1 cells assessed as drug tolerance at 40 mg/kg, ip for 4 weeks administered for 5 days consecutively and 2 days without treatment on every week in presence of JQ1; type: organism-based; conditions: in vivo, 672 h
PANC-1 [10] = assay: Induction of apoptosis in human PANC-1 cells assessed as early apoptotic cells at 2.5 uM incubated for 48 hrs by Annexin V-FITC/PI staining based flow cytometry (reference value: 1.41 %); type: functional
PANC-1 [11] = assay: Anti-migration activity in human PANC-1 cells at 2 uM in presence of JQ1 incubated for 24 hrs by wound healing assay; type: functional, cell-based
PANC-1 [12] = assay: Induction of apoptosis in human PANC-1 cells assessed as necrotic cells at 2 uM incubated for 48 hrs in presence of JQ1 by Annexin V-FITC/PI staining based flow cytometry (reference value: 3.09 %); type: functional
PANC-1 [13] = assay: Induction of apoptosis in human PANC-1 cells assessed as viable cells at 2 uM incubated for 48 hrs in presence of JQ1 by Annexin V-FITC/PI staining based flow cytometry (reference value: 91.64 %); type: functional; conditions: read-out: Activity
PANC-1 [14] = assay: Induction of cell cycle arrest in human PANC-1 cells assessed as accumulation at S phase at 10 uM incubated for 24 hrs by PI staining based flow cytometry (reference value: 38.94 %); type: functional
[15] = biological target: Bromodomain-containing protein 4 (Homo sapiens) (UniProt O60885); assay: Inhibition of BRD4 in human PANC-1 cells at 2 uM incubated for 24 hrs in presence of JQ1 by immunofluorescence based analysis; type: cell-based
PANC-1 [16] = assay: Induction of apoptosis in human PANC-1 cells assessed as late apoptotic cells at 1.2 uM incubated for 48 hrs by Annexin V-FITC/PI staining based flow cytometry (reference value: 3.87 %); type: functional
[17] = Toxicity in BALB/c mouse xenografted with human PANC-1 cells assessed as pathological changes in liver at 40 mg/kg, ip for 4 weeks administered for 5 days consecutively and 2 days without treatment on every week by H and E staining based analysis; type: organism-based; conditions: in vivo, 672 h
PANC-1 [18] = assay: Induction of cell cycle arrest in human PANC-1 cells assessed as accumulation at S phase at 2 uM incubated for 24 hrs in presence of JQ1 by PI staining based flow cytometry (reference value: 38.94 %); type: functional
PANC-1 [19] = assay: Induction of apoptosis in human PANC-1 cells assessed as early apoptotic cells at 2 uM incubated for 48 hrs in presence of JQ1 by Annexin V-FITC/PI staining based flow cytometry (reference value: 1.41 %); type: functional
[20] = Toxicity in BALB/c mouse xenografted with human PANC-1 cells assessed as animal mortality at 40 mg/kg, ip for 4 weeks administered for 5 days consecutively and 2 days without treatment on every week; type: organism-based; conditions: in vivo, 672 h
PANC-1 [21] = assay: Induction of cell cycle arrest in human PANC-1 cells assessed as accumulation at G2 phase at 10 uM incubated for 24 hrs by PI staining based flow cytometry (reference value: 9.36 %); type: functional
PANC-1 [22] = assay: Anti-migration activity in human PANC-1 cells at 2 uM in presence of JQ1 incubated for 24 hrs by transwell assay relative to control; type: functional
PANC-1 [23] = assay: Induction of apoptosis in human PANC-1 cells assessed as increase in Bax level at 2 uM incubated for 48 hrs in presence of JQ1 by Western blot analysis; type: functional, cell-based
PANC-1 [24] = assay: Induction of cell cycle arrest in human PANC-1 cells assessed as decrease in CDK6 level at 2 uM incubated for 24 hrs in presence of JQ1 by […]; type: functional
PANC-1 [25] = assay: Synergistic inhibition of colony formation in human PANC-1 cells at 2 uM incubated for 14 days in presence of JQ1 by crystal violet staining based analysis; type: functional, cell-based; conditions: time 14.0 day
PANC-1 [26] = assay: Inhibition of colony formation in human PANC-1 cells at 1 uM incubated for 14 days by crystal violet staining based analysis; type: functional, cell-based; conditions: time 14.0 day
PANC-1 [27] = assay: Induction of cell cycle arrest in human PANC-1 cells assessed as accumulation at S phase at 0.5 uM incubated for 24 hrs by PI staining based flow cytometry (reference value: 38.94 %); type: functional
PANC-1 [28] = assay: Induction of apoptosis in human PANC-1 cells assessed as viable cells at 0.5 uM incubated for 48 hrs by Annexin V-FITC/PI staining based flow cytometry (reference value: 91.64 %); type: functional; conditions: read-out: Activity
PANC-1 [29] = assay: Induction of cell cycle arrest in human PANC-1 cells assessed as accumulation at S phase at 0.25 uM incubated for 24 hrs by PI staining based flow cytometry (reference value: 38.94 %); type: functional
[30] = Toxicity in BALB/c mouse xenografted with human PANC-1 cells assessed as drug tolerance at 20 mg/kg, ip for 4 weeks administered for 5 days consecutively and 2 days without treatment on every week in presence of OL; type: organism-based; conditions: in vivo, 672 h
[31] = Toxicity in BALB/c mouse xenografted with human PANC-1 cells assessed as pathological changes in lung at 20 mg/kg, ip for 4 weeks administered for 5 days consecutively and 2 days without treatment on every week by H and E staining based analysis; type: organism-based; conditions: in vivo, 672 h
PANC-1 [32] = assay: Antitumor activity against human PANC-1 cells xenografted in BALB/c mouse assessed as reduction in tumor growth at 20 mg/kg, ip for 4 weeks administered for 5 days consecutively and 2 days without treatment on every week; type: functional, organism-based

SMILES: O=C(c1cc(Cc2n[nH]c(=O)c3ccccc23)ccc1F)N1CCN(C(=O)C2CC2)CC1 [OLAPARIB]
- inhibition (PANC-1 [1]): Active
- Activity (PANC-1 [2]): 44.32%
- Activity (PANC-1 [3]): 3.35%
- Activity (PANC-1 [4]): Active
- inhibition (PANC-1 [5]): Active
- Activity [6]: Non-toxic
- Activity [7]: Non-toxic
- Activity (PANC-1 [8]): 2.91%
- Activity [9]: Non-toxic
- Activity (PANC-1 [10]): 2.76%
- Activity (PANC-1 [11]): Active
- Activity (PANC-1 [12]): 4.77%
- viability at 2 µM (PANC-1 [13]): 68.3%
- Activity (PANC-1 [14]): 44.95%
- inhibition [15]: Active
- Activity (PANC-1 [16]): 3.98%
- Activity [17]: Non-toxic
- Activity (PANC-1 [18]): 25.85%
- Activity (PANC-1 [19]): 5.44%
- Activity [20]: Non-toxic
- Activity (PANC-1 [21]): 19.74%

SMILES: O=C1CCC(N2C(=O)c3cccc(NC(=O)CNCCCCCCCCCCC(=O)N4CCN(C(=O)c5cc(Cc6n[nH]c(=O)c7ccccc67)ccc5F)CC4)c3C2=O)C(=O)N1 (stereo not drawn)
- inhibition (PANC-1 [1]): Active
- Activity (PANC-1 [2]): 43.76%
- Activity (PANC-1 [3]): 3.83%
- Activity (PANC-1 [4]): Active
- inhibition (PANC-1 [5]): Active
- Activity [6]: Non-toxic
- Activity [7]: Non-toxic
- Activity (PANC-1 [8]): 4.28%
- Activity [9]: Non-toxic
- Activity (PANC-1 [10]): 4.13%
- Activity (PANC-1 [11]): Active
- Activity (PANC-1 [12]): 5%
- viability at 2 µM (PANC-1 [13]): 64.3%
- Activity (PANC-1 [14]): 40.91%
- inhibition [15]: Active
- Activity (PANC-1 [16]): 3.71%
- Activity [17]: Non-toxic
- Activity (PANC-1 [18]): 26.81%
- Activity (PANC-1 [19]): 8.77%
- Activity (PANC-1 [22]): 84.4%
- Activity (PANC-1 [23]): Active
- Activity (PANC-1 [24]): Active
- inhibition (PANC-1 [25]): Active
- Activity [20]: Non-toxic
- Activity (PANC-1 [21]): 15.94%

SMILES: Cc1sc2c(c1C)C(c1ccc(Cl)cc1)=N[C@@H](CC(=O)OC(C)(C)C)c1nnc(C)n1-2
- inhibition (PANC-1 [26]): Active
- Activity (PANC-1 [27]): 35.66%
- viability at 0.5 µM (PANC-1 [28]): 82.8%
- Activity (PANC-1 [29]): 38.89%
- Activity [30]: Non-toxic
- Activity [31]: Non-toxic
- Activity (PANC-1 [32]): Active
